These are literature values, as cited in US20250085273A1, “NOVEL RAPID DRUG DISCOVERY FOR SEPSIS AND AGENTS FOR USE AS SEPSIS THERAPY” (priority 2023, published 2025).

pIC50: −log10 of the molar value.

This series concerns the target D2 receptor (Homo sapiens, UniProt P14416). The note with it: read-out: IC50 for D2 receptor; cited from earlier work.

Sequence of D2 receptor (P14416 whole entry): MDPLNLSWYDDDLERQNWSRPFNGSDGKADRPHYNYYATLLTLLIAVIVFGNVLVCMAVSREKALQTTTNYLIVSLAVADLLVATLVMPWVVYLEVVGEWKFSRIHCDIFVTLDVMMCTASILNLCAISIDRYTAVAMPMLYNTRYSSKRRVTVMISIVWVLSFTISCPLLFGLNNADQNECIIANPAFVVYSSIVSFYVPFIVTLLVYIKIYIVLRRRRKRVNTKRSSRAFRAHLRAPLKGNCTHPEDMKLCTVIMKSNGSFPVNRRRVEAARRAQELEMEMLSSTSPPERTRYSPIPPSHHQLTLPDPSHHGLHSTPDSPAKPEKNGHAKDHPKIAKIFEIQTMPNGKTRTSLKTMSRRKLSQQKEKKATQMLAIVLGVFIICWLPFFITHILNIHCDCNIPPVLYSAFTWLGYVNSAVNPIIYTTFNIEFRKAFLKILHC

As usually defined, the pIC50 is −log10 of the IC50, conventionally taken in molar units. Turning to `CN1CCN(CCCN2c3ccccc3Sc3ccc(C(F)(F)F)cc32)CC1` [Trifluoperazine], the pIC50 was 8.92.
